Assay results as given in US20240208992A1, “MACROCYCLES AS CFTR MODULATORS” (Idorsia Pharmaceuticals Ltd, priority 2021, published 2024).

Biological target: human F508del-CFTR (Homo sapiens, UniProt P13569, DEL508-508)
Assay: F508del-CFTR cell surface expression (corrector activity), DiscoveRx ß-galactosidase complementation chemiluminescence assay in recombinant U2OS cell line;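 further: U2OS cells co-expressing ProLink-tagged F508del-CFTR and a membrane-anchored enzyme acceptor, where more surface CFTR restores β-galactosidase activity measured by chemiluminescence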
Settings: for EC50: EC50, F508del-CFTR cell surface expression; for Emax: U2OS
[1] = U2OS cells, 16h compound incubation, geomean values
[2] = in relation to Emax of corrector lumacaftor (=100%), arithmetic mean values
[3] = U2OS cells, 16h compound incubation, geomean of several measurements
[4] = in relation to the Emax of the corrector lumacaftor (=100%), U2OS cells, 16h compound incubation, arithmetic mean
[5] = U2OS cell line, 16h compound incubation, geomean values
[6] = in relation to the Emax of the corrector lumacaftor (=100%), U2OS cell line, 16h compound incubation, arithmetic mean values

human F508del-CFTR, sequence (P13569 with tags, fused parts or gaps DEL508-508): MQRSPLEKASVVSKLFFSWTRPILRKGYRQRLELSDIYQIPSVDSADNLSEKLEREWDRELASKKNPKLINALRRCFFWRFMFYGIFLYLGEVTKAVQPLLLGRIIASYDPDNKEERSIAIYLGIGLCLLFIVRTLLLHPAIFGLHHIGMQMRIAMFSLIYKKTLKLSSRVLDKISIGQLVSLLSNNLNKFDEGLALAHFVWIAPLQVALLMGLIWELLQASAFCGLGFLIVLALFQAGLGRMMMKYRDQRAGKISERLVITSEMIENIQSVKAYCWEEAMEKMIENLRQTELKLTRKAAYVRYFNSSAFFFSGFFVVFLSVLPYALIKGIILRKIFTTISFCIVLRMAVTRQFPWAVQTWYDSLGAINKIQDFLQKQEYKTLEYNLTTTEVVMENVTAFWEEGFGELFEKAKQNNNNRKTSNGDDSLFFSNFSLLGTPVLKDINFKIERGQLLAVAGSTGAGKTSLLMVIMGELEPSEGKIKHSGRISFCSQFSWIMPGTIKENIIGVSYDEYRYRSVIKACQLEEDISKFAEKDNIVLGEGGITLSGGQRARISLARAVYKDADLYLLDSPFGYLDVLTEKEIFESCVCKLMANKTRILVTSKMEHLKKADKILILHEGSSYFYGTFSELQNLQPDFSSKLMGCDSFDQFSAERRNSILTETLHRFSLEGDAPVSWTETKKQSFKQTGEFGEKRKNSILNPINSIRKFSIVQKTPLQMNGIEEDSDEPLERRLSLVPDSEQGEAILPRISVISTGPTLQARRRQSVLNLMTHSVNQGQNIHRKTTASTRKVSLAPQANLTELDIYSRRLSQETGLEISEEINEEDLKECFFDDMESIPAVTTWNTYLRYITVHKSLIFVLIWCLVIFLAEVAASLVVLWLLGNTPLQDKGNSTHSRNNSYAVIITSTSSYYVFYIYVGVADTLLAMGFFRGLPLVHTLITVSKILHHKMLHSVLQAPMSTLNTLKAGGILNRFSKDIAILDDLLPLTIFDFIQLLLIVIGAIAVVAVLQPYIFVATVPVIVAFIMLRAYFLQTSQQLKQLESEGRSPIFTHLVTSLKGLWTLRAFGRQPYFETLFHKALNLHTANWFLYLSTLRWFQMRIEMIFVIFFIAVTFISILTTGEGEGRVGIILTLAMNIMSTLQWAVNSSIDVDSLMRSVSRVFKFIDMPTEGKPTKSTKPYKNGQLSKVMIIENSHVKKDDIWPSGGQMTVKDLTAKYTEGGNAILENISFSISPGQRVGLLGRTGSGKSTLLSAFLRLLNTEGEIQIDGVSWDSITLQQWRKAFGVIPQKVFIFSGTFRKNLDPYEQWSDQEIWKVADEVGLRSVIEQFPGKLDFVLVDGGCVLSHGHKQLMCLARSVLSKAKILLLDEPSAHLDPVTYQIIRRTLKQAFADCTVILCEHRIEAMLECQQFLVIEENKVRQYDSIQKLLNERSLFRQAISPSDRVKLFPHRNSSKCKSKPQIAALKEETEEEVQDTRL

Compound	EC50 [1] [nM]	Emax [2] [%]	EC50 [5] [nM]	other results
Cc1cc(CCNC(=O)[C@@H]2CC(=O)N(C)[C@@H](CC(C)C)C(=O)N3CCN(CC(C)C)C[C@@H]3C(=O)N[C@H](Cc3ccccc3)COc3cnc4ccccc4c3C(=O)N2)on1 [Example 622, (9S,13S,19aR,22R)-22-benzyl-13,18-diisobutyl-12-methyl-N-(2-(3-methylisoxazol-5-yl)ethyl)-7,11,14,20-tetraoxo-7,8,9,10,11,12,13,14,17,18,19,19a,20,21,22,23-hexadecahydro-16H-pyrazino[2′,1′:6,7][1]oxa[4,7,10,14]tetraazacycloheptadecino[17,16-c]quinoline-9-carboxamide]	199	296		
Cc1cc(CCNC(=O)[C@@H]2CC(=O)N(C)[C@@H](CC(C)C)C(=O)N(C)C3(Cc4ccccc4C3)C(=O)N[C@H](Cc3ccccc3)COc3cnc4ccccc4c3C(=O)N2)on1 [Example 495, (3′S,7′S,13′R)-13′-benzyl-7′-isobutyl-6′,9′-dimethyl-N-(2-(3-methylisoxazol-5-yl)ethyl)-1′,5′,8′,11′-tetraoxo-1,2′,3,3′,4′,5′,6′,7′,8′,9′,11′,12′,13′,14′-tetradecahydro-1′H-spiro[indene-2,10′-[1]oxa[4,7,10,14]tetraazacycloheptadecino[17,16-c]quinoline]-3′-carboxamide]	296	207		
COc1noc(CCNC(=O)[C@@H]2CC(=O)N(C)[C@@H](CC(C)C)C(=O)N(C)[C@H](CC(F)F)C(=O)N[C@H](Cc3ccccc3)COc3ccc4cnc(C)cc4c3C(=O)N2)n1 [Example 932, (3S,7S,10R,13R)-13-benzyl-10-(2,2-difluoroethyl)-7-isobutyl-N-(2-(3-methoxy-1,2,4-oxadiazol-5-yl)ethyl)-6,9,20-trimethyl-1,5,8,11-tetraoxo-1,2,3,4,5,6,7,8,9,10,11,12,13,14-tetradecahydro-[1]oxa[4,7,10,14]tetraazacycloheptadecino[16,17-f]isoquinoline-3-carboxamide]				EC50 [3]: 373 nM; Emax [4]: 491%
Cc1cc(CCNC(=O)[C@@H]2CC(=O)N(C)[C@@H](CC(C)C)C(=O)N(C)[C@H](CC(C)C)C(=O)N[C@H](Cc3ccccc3)COc3cnc4ccccc4c3C(=O)N2)on1 [Example 548, (3S,7S,10R,13R)-13-benzyl-7,10-diisobutyl-6,9-dimethyl-N-(2-(3-methylisoxazol-5-yl)ethyl)-1,5,8,11-tetraoxo-1,2,3,4,5,6,7,8,9,10,11,12,13,14-tetradecahydro-[1]oxa[4,7,10,14]tetraazacycloheptadecino[17,16-c]quinoline-3-carboxamide]	106	326		
COc1cc(CCNC(=O)[C@@H]2CC(=O)N(C)[C@@H](CC(C)C)C(=O)N3CCCC[C@@H]3C(=O)N[C@H](Cc3ccccc3)COc3cnc4ccccc4c3C(=O)N2)ccc1F [Example 91, (9S,13S,19aR,22R)-22-benzyl-N-(4-fluoro-3-methoxyphenethyl)-13-isobutyl-12-methyl-7,11,14,20-tetraoxo-7,8,9,10,11,12,13,14,17,18,19,19a,20,21,22,23-hexadecahydro-16H-pyrido[2′,1′:6,7][1]oxa[4,7,10,14]tetraazacycloheptadecino[17,16-c]quinoline-9-carboxamide]			466	Emax [6]: 210%
COc1nc(C)cc2c1C(=O)N[C@H](C(=O)NCCc1cc(C3CC3)on1)CC(=O)N(C)[C@@H](CC(C)C)C(=O)N1CCCC[C@@H]1C(=O)N[C@H](Cc1ccccc1)CO2 [Example 565, (7S,11S,17aR,20R)-20-benzyl-N-(2-(5-cyclopropylisoxazol-3-yl)ethyl)-11-isobutyl-4-methoxy-2,10-dimethyl-5,9,12,18-tetraoxo-5,6,7,8,9,10,11,12,15,16,17,17a,18,19,20,21-hexadecahydro-14H-dipyrido[2,1-f:3′,4′-p][1]oxa[4,7,10,14]tetraazacycloheptadecine-7-carboxamide]	338	254		
Cc1cc(CCNC(=O)[C@@H]2CC(=O)N(C)[C@@H](CC(C)C)C(=O)N(C)[C@H](Cc3nc(-c4ccc(F)cn4)no3)C(=O)N[C@H](Cc3ccccc3)COc3ccc4ncc(F)cc4c3C(=O)N2)on1 [Example 807, (3S,7S,10R,13R)-13-benzyl-20-fluoro-10-((3-(5-fluoropyridin-2-yl)-1,2,4-oxadiazol-5-yl)methyl)-7-isobutyl-6,9-dimethyl-N-(2-(3-methylisoxazol-5-yl)ethyl)-1,5,8,11-tetraoxo-1,2,3,4,5,6,7,8,9,10,11,12,13,14-tetradecahydro-[1]oxa[4,7,10,14]tetraazacycloheptadecino[16,17-f]quinoline-3-carboxamide]				EC50 [3]: 206 nM; Emax [4]: 358%
COc1cccc(CCNC(=O)[C@@H]2CC(=O)N(C)[C@@H](CC(C)C)C(=O)N3CCCC[C@@H]3C(=O)N[C@H](Cc3ccccc3)COc3cnc4ccccc4c3C(=O)N2)c1 [Example 365, (9S,13S,19aR,22R)-22-benzyl-13-isobutyl-N-(3-methoxyphenethyl)-12-methyl-7,11,14,20-tetraoxo-7,8,9,10,11,12,13,14,17,18,19,19a,20,21,22,23-hexadecahydro-16H-pyrido[2′,1′:6,7][1]oxa[4,7,10,14]tetraazacycloheptadecino[17,16-c]quinoline-9-carboxamide]			398	Emax [6]: 387%
CC(C)C[C@H]1C(=O)N(C)[C@H](Cc2nc(-c3ccc(F)cn3)no2)C(=O)N[C@H](Cc2ccccc2)COc2cnc3ccc(F)cc3c2C(=O)N[C@H](C(=O)NCCn2nc3ccccc3n2)CC(=O)N1C [Example 840, (3S,7S,10R,13R)-N-(2-(2H-benzo[d][1,2,3]triazol-2-yl)ethyl)-13-benzyl-20-fluoro-10-((3-(5-fluoropyridin-2-yl)-1,2,4-oxadiazol-5-yl)methyl)-7-isobutyl-6,9-dimethyl-1,5,8,11-tetraoxo-1,2,3,4,5,6,7,8,9,10,11,12,13,14-tetradecahydro-[1]oxa[4,7,10,14]tetraazacycloheptadecino[17,16-c]quinoline-3-carboxamide]				EC50 [3]: 128 nM; Emax [4]: 363%
COc1cccc(CCNC(=O)[C@@H]2CC(=O)N(C)[C@@H](CC3CCCCC3)C(=O)N(C[C@H]3CCCCO3)CC(=O)N[C@H](Cc3ccccc3)COc3ccc4ccccc4c3C(=O)N2)c1 (mixture of isomers) [Example 296, (3RS,7S,13R)-13-benzyl-7-(cyclohexylmethyl)-N-(3-methoxyphenethyl)-6-methyl-1,5,8,11-tetraoxo-9-(((R)-tetrahydro-2H-pyran-2-yl)methyl)-1,2,3,4,5,6,7,8,9,10,11,12,13,14-tetradecahydronaphtho[1,2-p][1]oxa[4,7,10,14]tetraazacycloheptadecine-3-carboxamide]			158	
CC(C)C[C@H]1C(=O)N(C)C2(CC2)C(=O)N[C@H](Cc2ccccc2)COc2cnc3ccc(F)cc3c2C(=O)N[C@H](C(=O)NCCc2ccc(N3CCOCC3)cc2)CC(=O)N1C [Example 170, (3′S,7′S,13′R)-13′-benzyl-20′-fluoro-7′-isobutyl-6′,9′-dimethyl-N-(4-morpholinophenethyl)-1′,5′,8′,11′-tetraoxo-2′,3′,4′,5′,6′,7′,8′,9′,11′,12′,13′,14′-dodecahydro-1′H-spiro[cyclopropane-1,10′-[1]oxa[4,7,10,14]tetraazacycloheptadecino[17,16-c]quinoline]-3′-carboxamide]			329	Emax [6]: 267%
